Broadly, the EC50 is the concentration needed to bring the measured effect to its halfway point.

What all share (format): cell-based
Assay [1] deals with T1, human glucagon receptor (GCGR) (Homo sapiens, UniProt P47871).
T1 construct: expressed in transfected cells
In words: cAMP assay, human GCGR cells. Conditions: cAMP assay. In short, it runs like this: (§1)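 Peptide-stimulated cAMP measured by two-step HTRF after a 30 min room-temperature incubation with receptor-expressing cells (hGLP-1R, hGIPR at 1×10^5 cells/ml; hGCGR at 2×10^5 cells/ml). Duplicate dilutions; EC50 from 4-parameter logistic fit of % Delta F.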

The target in assay [2] is T2, human glucose-dependent insulinotropic peptide receptor (GIPR) (Homo sapiens, UniProt P48546).
T2 construct: expressed in transfected cells
T2 sequence (P48546 22-466): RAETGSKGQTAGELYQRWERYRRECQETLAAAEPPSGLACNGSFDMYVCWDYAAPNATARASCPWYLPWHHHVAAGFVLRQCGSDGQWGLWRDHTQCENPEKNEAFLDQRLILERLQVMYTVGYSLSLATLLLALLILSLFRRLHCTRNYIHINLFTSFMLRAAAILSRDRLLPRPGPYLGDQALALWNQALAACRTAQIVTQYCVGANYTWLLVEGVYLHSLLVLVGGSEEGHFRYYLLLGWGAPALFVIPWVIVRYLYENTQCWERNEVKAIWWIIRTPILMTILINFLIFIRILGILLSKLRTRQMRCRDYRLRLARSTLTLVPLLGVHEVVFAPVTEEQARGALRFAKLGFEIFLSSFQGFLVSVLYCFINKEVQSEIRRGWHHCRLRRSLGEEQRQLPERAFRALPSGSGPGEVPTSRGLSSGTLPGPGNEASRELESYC
In words: cAMP assay, human GIPR cells. Conditions: cAMP assay. In short, it runs like this: as §1

Assay [3] deals with T3, GLP-1R (INS1e assay) (Rattus norvegicus, UniProt P32301).
T3 construct: endogenous in cells; host or cells: INS-1E cells
T3 sequence (P32301 22-463): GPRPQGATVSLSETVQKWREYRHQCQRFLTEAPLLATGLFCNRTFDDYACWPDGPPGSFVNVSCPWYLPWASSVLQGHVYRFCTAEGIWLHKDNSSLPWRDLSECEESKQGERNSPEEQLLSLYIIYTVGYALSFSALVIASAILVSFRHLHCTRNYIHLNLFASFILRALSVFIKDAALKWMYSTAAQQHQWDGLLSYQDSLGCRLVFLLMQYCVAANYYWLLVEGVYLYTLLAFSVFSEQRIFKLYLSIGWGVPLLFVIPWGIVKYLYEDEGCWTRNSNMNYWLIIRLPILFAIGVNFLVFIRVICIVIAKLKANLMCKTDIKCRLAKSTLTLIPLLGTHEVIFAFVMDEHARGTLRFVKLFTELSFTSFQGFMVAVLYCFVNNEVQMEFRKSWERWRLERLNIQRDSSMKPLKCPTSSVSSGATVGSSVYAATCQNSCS
Put plainly: INS1e assay, cAMP activity at GLP-1R. The following applies: mono-lipidated peptides. An outline of the steps:
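cAMP was quantified by two-step HTRF, using anti-cAMP cryptate donor and cAMP-d2 acceptor, each diluted 1/20 in conjugate and lysis buffer. EC50 values of the synthetic peptides were derived from the cAMP readout.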

Setting [4] is: first determination (n1), read-out: Primary assay EC50 Gluc-R (n1).
The mark [5] stands for this setting: second determination (n2), read-out: Primary assay EC50 Gluc-R (n2).
The mark [6] stands for this setting: first determination (n1), read-out: Primary assay EC50 GIP-R (n1).
[7] abbreviates: second determination (n2), read-out: Primary assay EC50 GIP-R (n2).
Where [8] appears, read: mean of n1 and n2, read-out: INS1e assay EC50 Mean pM GLP-1R.
Where [9] appears, read: replicate n1, read-out: INS1e assay EC50 GLP-1R n1.
Where [10] appears, read: replicate n2, read-out: INS1e assay EC50 GLP-1R n2.

Where two headings read alike, the source gives them in different places. Numbered stars: 1 amine (or outer) side, 2 acyl side, 3 side chain; on linkers, the order of the positions; unused ones are H or OH. Square brackets hold non-standard residues; d marks the D form. Side chains are listed from the residue outwards. Peptide text beside a SMILES is read from it. * marks the point of attachment. C18 diacid = O=C(O)CCCCCCCCCCCCCCCCC(=O)*; γGlu = O=C(O)[C@H](CCC(=O)[*:2])N[*:1]; Palmitoyl = CCCCCCCCCCCCCCCC(=O)*; αMeF = C[C@](N)(Cc1ccccc1)C(=O)O; αMeK = C[C@](N)(CCCCN)C(=O)O; αMeS = C[C@](N)(CO)C(=O)O; AEEA = NCCOCCOCC(=O)O; Aib = CC(C)(N)C(=O)O

T1 sequence (P47871 26-477): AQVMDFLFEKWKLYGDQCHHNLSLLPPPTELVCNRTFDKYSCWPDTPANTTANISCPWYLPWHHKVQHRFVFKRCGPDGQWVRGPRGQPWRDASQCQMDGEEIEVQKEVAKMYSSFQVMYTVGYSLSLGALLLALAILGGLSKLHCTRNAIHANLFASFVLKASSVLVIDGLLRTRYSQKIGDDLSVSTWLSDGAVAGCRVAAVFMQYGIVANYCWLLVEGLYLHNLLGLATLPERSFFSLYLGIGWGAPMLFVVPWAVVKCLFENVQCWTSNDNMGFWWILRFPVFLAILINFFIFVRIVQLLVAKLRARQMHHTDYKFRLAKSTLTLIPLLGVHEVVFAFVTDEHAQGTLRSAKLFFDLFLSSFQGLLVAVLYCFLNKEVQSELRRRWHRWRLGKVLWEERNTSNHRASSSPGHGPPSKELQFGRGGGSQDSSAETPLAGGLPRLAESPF

For the molecule `CC[C@H](C)[C@H](NC(=O)[C@](C)(Cc1ccccc1)NC(=O)[C@H](CCC(=O)O)NC(=O)[C@](C)(CCCCN)NC(=O)[C@H](C)NC(=O)[C@H](C)NC(=O)[C@H](CCC(=O)O)NC(=O)CNC(=O)[C@H](CCC(=O)O)NC(=O)[C@H](CC(C)C)NC(=O)[C@H](CCCCNC(=O)COCCOCCNC(=O)COCCOCCNC(=O)CC[C@H](NC(=O)CCCCCCCCCCCCCCCCC(=O)O)C(=O)O)NC(=O)[C@H](CO)NC(=O)[C@](C)(CO)NC(=O)[C@@H](NC(=O)[C@H](CC(=O)O)NC(=O)[C@H](CO)NC(=O)[C@@H](NC(=O)[C@](C)(Cc1ccccc1)NC(=O)[C@H](CO)NC(=O)CNC(=O)[C@H](CCC(=O)O)NC(=O)C(C)(C)NC(=O)[C@@H](N)Cc1c[nH]cn1)[C@@H](C)O)C(C)C)C(=O)N[C@@H](C)C(=O)N[C@@](C)(Cc1ccccc1)C(=O)N[C@H](C(=O)N[C@H](C(=O)N[C@@](C)(CCCCN)C(=O)NCC(=O)NCC(N)=O)C(C)C)C(C)C` [compound 116], the EC50 was no less than 26 nM in assay [1] (setting [4]); no less than 25.6 nM in assay [1] (setting [5]); no less than 26 nM in assay [2] (setting [6]); no less than 25.6 nM in assay [2] (setting [7]); 1110 pM in assay [3] (setting [8]); 1610 pM in assay [3] (setting [9]). Moreover, the EC50 in assay [3] (setting [10]) was 610 pM.
Regarding `CCCCCCCCCCCCCCCC(=O)N[C@@H](CCC(=O)NCCCC[C@H](NC(=O)[C@H](CC(=O)O)NC(=O)[C@H](CO)NC(=O)[C@@H](NC(=O)[C@](C)(Cc1ccccc1)NC(=O)[C@H](CO)NC(=O)CNC(=O)[C@H](CCC(=O)O)NC(=O)C(C)(C)NC(=O)[C@@H](N)Cc1c[nH]cn1)[C@@H](C)O)C(=O)N[C@@](C)(CO)C(=O)N[C@@H](CO)C(=O)N[C@@](C)(Cc1ccccc1)C(=O)N[C@@H](CC(C)C)C(=O)N[C@@H](CCC(=O)O)C(=O)NCC(=O)N[C@@H](CCC(=O)O)C(=O)N[C@@H](C)C(=O)N[C@@H](C)C(=O)N[C@@](C)(CCCCN)C(=O)N[C@@H](CCC(=O)O)C(=O)N[C@@](C)(Cc1ccccc1)C(=O)N[C@H](C(=O)N[C@@H](C)C(=O)N[C@@](C)(Cc1ccccc1)C(=O)N[C@H](C(=O)N[C@H](C(=O)N[C@@](C)(CCCCN)C(=O)NCC(=O)NCC(N)=O)C(C)C)C(C)C)[C@@H](C)CC)C(=O)O` [compound 90] (H-H[Aib]EGS[αMeF]TSDK([γGlu-Palmitoyl])[αMeS]S[αMeF]LEGEAA[αMeK]E[αMeF]IA[αMeF]VV[αMeK]GG-NH2), the EC50 in assay [1] (setting [4]) was no less than 28 nM; in assay [1] (setting [5]), no less than 28 nM; in assay [2] (setting [6]) it was no less than 28 nM; in assay [2] (setting [7]) it was no less than 28 nM; in assay [3] (setting [8]) it was 51 pM; in assay [3] (setting [9]), 43.4 pM. Moreover, in assay [3] (setting [10]), the concentration for a half-maximal effect (EC50) came to 58.6 pM.
Consider `CC[C@H](C)[C@H](NC(=O)[C@](C)(Cc1ccccc1)NC(=O)[C@H](CCC(=O)O)NC(=O)[C@](C)(CCCCN)NC(=O)[C@H](C)NC(=O)[C@H](C)NC(=O)[C@H](CCC(=O)O)NC(=O)[C@H](CCCCNC(=O)COCCOCCNC(=O)COCCOCCNC(=O)CC[C@H](NC(=O)CCCCCCCCCCCCCCCCC(=O)O)C(=O)O)NC(=O)[C@H](CCC(=O)O)NC(=O)[C@H](CC(C)C)NC(=O)[C@](C)(Cc1ccccc1)NC(=O)[C@H](CO)NC(=O)[C@](C)(CO)NC(=O)[C@@H](NC(=O)[C@H](CC(=O)O)NC(=O)[C@H](CO)NC(=O)[C@@H](NC(=O)[C@](C)(Cc1ccccc1)NC(=O)[C@H](CO)NC(=O)CNC(=O)[C@H](CCC(=O)O)NC(=O)C(C)(C)NC(=O)[C@@H](N)Cc1c[nH]cn1)[C@@H](C)O)C(C)C)C(=O)N[C@@H](C)C(=O)N[C@@](C)(Cc1ccccc1)C(=O)N[C@H](C(=O)N[C@H](C(=O)N[C@@](C)(CCCCN)C(=O)NCC(=O)NCC(N)=O)C(C)C)C(C)C` [compound 113] (H-H[Aib]EGS[αMeF]TSDV[αMeS]S[αMeF]LEK([AEEA-AEEA-γGlu-C18 diacid])EAA[αMeK]E[αMeF]IA[αMeF]VV[αMeK]GG-NH2; N-terminus assumed), for which the EC50 in assay [1] (setting [4]) was no less than 25 nM; in assay [1] (setting [5]), no less than 24.9 nM; in assay [2] (setting [6]), no less than 25 nM; in assay [2] (setting [7]), no less than 24.9 nM; in assay [3] (setting [8]), 1040 pM; in assay [3] (setting [9]), 823 pM. In addition, in assay [3] (setting [10]), the half-maximal effective concentration (EC50) was 1260 pM.
For `CC[C@H](C)[C@H](NC(=O)[C@](C)(Cc1ccccc1)NC(=O)[C@H](CCC(=O)O)NC(=O)[C@](C)(CCCCN)NC(=O)[C@H](C)NC(=O)[C@H](C)NC(=O)[C@H](CCC(=O)O)NC(=O)CNC(=O)[C@H](CCC(=O)O)NC(=O)[C@H](CC(C)C)NC(=O)[C@](C)(Cc1ccccc1)NC(=O)[C@H](CO)NC(=O)[C@](C)(CO)NC(=O)[C@@H](NC(=O)[C@H](CC(=O)O)NC(=O)[C@H](CO)NC(=O)[C@@H](NC(=O)[C@](C)(Cc1ccccc1)NC(=O)[C@H](CO)NC(=O)CNC(=O)[C@H](CCC(=O)O)NC(=O)C(C)(C)NC(=O)[C@@H](N)Cc1c[nH]cn1)[C@@H](C)O)C(C)C)C(=O)N[C@@H](C)C(=O)N[C@@](C)(Cc1ccccc1)C(=O)N[C@H](C(=O)N[C@H](C(=O)N[C@@H](CCC(=O)O)C(=O)NCC(=O)NCC(N)=O)C(C)C)C(C)C` [compound 43] (H-H[Aib]EGS[αMeF]TSDV[αMeS]S[αMeF]LEGEAA[αMeK]E[αMeF]IA[αMeF]VVEGG-NH2), the EC50 in assay [1] (setting [4]) is no less than 31 nM; in assay [1] (setting [5]) it was no less than 31 nM; in assay [2] (setting [6]), no less than 31 nM; in assay [2] (setting [7]), no less than 31 nM; in assay [3] (setting [8]) it was 13 pM; in assay [3] (setting [9]), 16 pM. In addition, in assay [3] (setting [10]), the EC50 was found to be 10.5 pM.
For the molecule `CCCCCCCCCCCCCCCCCC(=O)NCCOCCOCC(=O)NCCOCCOCC(=O)NCCOCCOCC(=O)NCCCC[C@H](NC(=O)[C@H](C)NC(=O)[C@H](C)NC(=O)[C@H](CCC(=O)O)NC(=O)CNC(=O)[C@H](CCC(=O)O)NC(=O)[C@H](CC(C)C)NC(=O)[C@](C)(Cc1ccccc1)NC(=O)[C@H](CO)NC(=O)[C@](C)(CO)NC(=O)[C@@H](NC(=O)[C@H](CC(=O)O)NC(=O)[C@H](CO)NC(=O)[C@@H](NC(=O)[C@](C)(Cc1ccccc1)NC(=O)[C@H](CO)NC(=O)CNC(=O)[C@H](CCC(=O)O)NC(=O)C(C)(C)NC(=O)[C@@H](N)Cc1c[nH]cn1)[C@@H](C)O)C(C)C)C(=O)N[C@@H](CCC(=O)O)C(=O)N[C@@H](Cc1ccccc1)C(=O)N[C@H](C(=O)N[C@@H](C)C(=O)N[C@@](C)(Cc1ccccc1)C(=O)N[C@H](C(=O)N[C@H](C(=O)N[C@@](C)(CCCCN)C(=O)NCC(=O)NCC(N)=O)C(C)C)C(C)C)[C@@H](C)CC` [compound 54], the EC50 in assay [1] (setting [4]) is no less than 26 nM; in assay [1] (setting [5]) it was no less than 26 nM; in assay [2] (setting [6]) it was no less than 26 nM; in assay [2] (setting [7]), no less than 26 nM; in assay [3] (setting [8]), 6 pM; in assay [3] (setting [9]) it was 2.67 pM. Moreover, the EC50 in assay [3] (setting [10]) stood at 8.37 pM.

(Values after patent US10414811B2, “Protease-resistant lipidated GLP-1 analogs” (MEDIMMUNE LIMITED, priority 2015, dated 2019).)
